Measurements from US20120022142A1, “RNA Interference Mediated Inhibition of Signal Transducer and Activator of Transcription 1 (STAT1) Gene Expression Using Short Interfering Nucleic Acid (siNA)” (Merck Sharp & Dohme Corp., priority 2009, published 2012).
[invAb] = inverted abasic unit; d = 2'-deoxy (DNA); m = 2'-O-methyl; r = 2'-OH (RNA); f = 2'-fluoro

Experiments:
STAT1 human mRNA = test: Initial screen of siNAs: STAT1 mRNA knock-down in A549 cells (96-well transfection, Taqman RT-PCR); format: cell-based; conditions: 10 nM siNA, 24 hrs, normalized against GAPDH, average of 2 experiments
Protocol: A549 (human; ATCC cat# CCL-185): Cells were cultured at 37° C. in the presence of 5% CO2 and grown in Ham's F12K medium with 2 mM L-glutamine adjusted to contain 1.5 g/L sodium bicarbonate and supplemented with fetal bovine serum at a final concentration of 10% and 100 μg/mL of streptomycin and 100 U/mL penicillin.
(§1) Cells were plated in all wells of a tissue-culture treated, 96-well plate at a final count of 5000 cells/well in 100 μL of the appropriate culture media. The cells were cultured for 24 hours after plating at 37° C. in the presence of 5% CO2.
(§2) After 24 hours, complexes containing siNA and RNAiMax were created as follows: A solution of RNAiMax diluted 33-fold in OPTI-MEM was prepared. In parallel, solutions of the siNAs for testing were prepared to a final concentration of 120 nM in OPTI-MEM. After incubation of RNAiMax/OPTI-MEM solution at room temperature for 5 min, an equal volume of the siNA solution and the RNAiMax solution were added together for each of the siNAs.
(§3) This solution was incubated at room temperature for 20 minutes. After incubation, 20 uL of the solution was added to each of the relevant wells. The final concentration of siNA in each well was 10 nM and the final volume of RNAiMax in each well was 0.3 ul.
(§4) The time of incubation with the RNAiMax-siNA complexes was 24 hours and there was no change in media between transfection and harvesting, unless otherwise indicated.
(§5) RNA was extracted from a 96-well plate using the TaqMan® Gene Expression Cells-to-CT™ Kit (Cat# 4399002) with a modified protocol. Briefly, a 60 uL (1 plate) or 110 uL (2 plates) of the Lysis Solution with DNase I was dispensed into each well of the Lysis Buffer Plate (twin.tec full skirt plate). The lysis buffer and stop plates were stored at 4° C. until the cells were washed.
(§6) The culture medium was aspirated and discarded from the wells of the culture plate. 50 uL of chilled DPBS was added to each well, then aspirated and discarded. The lysis was performed automatically using a BioMek FX instrument and method. After the Biomek method was completed, the lysis plate was incubated for 2 min at room temperature. The lysis plate can be stored for 2 hours at 4° C., or at −20° C. or −80° C. for two months.
(§7) Each well of the reverse transcription plate required 10 uL of 2× reverse transcriptase Buffer, 1 uL of 20× reverse transcription enzyme and 2 uL of nuclease-free water. The reverse transcription master mix was prepared by mixing 2× reverse transcription buffer, 20× reverse transcription enzyme mix, and nuclease-free water. 13 uL of the reverse transcription master mix was dispensed into each well of the reverse transcription plate (semi-skirted). A separate reverse transcription plate was prepared for each cell plate. The plate was loaded onto a Biomek NX or Biomek FX Dual-96 and the Biomek method was run. The program is programmed to automatically added 7 uL of lysate from the cell lysis procedure described above into each well of the reverse transcription plate. The plate is sealed and spun on a centrifuge (1000 rpm for 30 seconds) to settle the contents to the bottom of the reverse transcription plate. The plate is placed in a thermocycler at 37° C. for 60 min, 95° C. for 5 min, and 4° C. until the plate is removed from the thermocycler. Upon removal, if not used immediately, the plate was frozen at −20° C.
(§8) A series of probes and primers were used to detect the various mRNA transcripts of the genes of β-Actin (human cell line only), and of STAT1 and GAPDH in mouse and human cell lines. All Taqman probes and primers for the experiments here-in described were supplied as pre-validated sets by Applied Biosystems, Inc. (see Table 2).
The assays were performed on an ABI 7900 instrument, according to the manufacturer's instructions.
Within each experiment, the baseline was set in the exponential phase of the amplification curve, and based on the intersection point of the baselines with the amplification curve, a Ct value was assigned by the instrument. […]

STAT1 mouse mRNA = test: Initial screen of siNAs: STAT1 mRNA knock-down in NIH 3T3 cells (96-well transfection, Taqman RT-PCR); format: cell-based; conditions: 10 nM siNA, 24 hrs, normalized against GAPDH, average of 2 experiments
Protocol: NIH 3T3 (mouse; ATCC cat# CRL-1658): Cells were cultured at 37° C. in the presence of 5% CO2 and grown in Dulbecco's modified Eagle's medium (DMEM) with 4 mM L-glutamine adjusted to contain 1.5 g/L sodium bicarbonate and 4.5 g/L glucose and supplemented with fetal bovine serum at a final concentration of 10%, 100 μg/mL of streptomycin, and 100 U/mL penicillin.
as §1, §2, §3, §4, §5, §6, §7, §8
The assays were performed on an ABI 7900 instrument, according to the manufacturer's instructions. […]

## 25356-DC: STAT1 siNA duplex, human target site 1115; modified strands SEQ ID NO: 49 and 50 (chain 1 GCUUGGAUCAGCUGCAGAATT; chain 2 UUCUGCAGCUGAUCCAAGCUU; chain 1: DNA at AGT, 2'-fluoro at CU, [invAb] at 5' end, 3' end, backbone not given here; chain 2: sugars from the 5' end rrrfmfmmffmmfffmmmfmm, backbone not given here)
STAT1 human mRNA
  % KD Human: 43%
STAT1 mouse mRNA
  % KD Mouse: 35%

## 25365-DC: STAT1 siNA duplex, human target site 431; modified strands SEQ ID NO: 67 and 68 (chain 1 CCAUGGAAAUCAGACAGUATT; chain 2 UACUGUCUGAUUUCCAUGGUU; chain 1: DNA at AGT, 2'-fluoro at CU, [invAb] at 5' end, 3' end, backbone not given here; chain 2: sugars from the 5' end rrrfmfffmmfffffmfmmmm, backbone not given here)
STAT1 human mRNA
  % KD Human: 87%
STAT1 mouse mRNA
  % KD Mouse: 80%

## 25357-DC: STAT1 siNA duplex, human target site 2285; modified strands SEQ ID NO: 51 and 52 (chain 1 CUGACAUCAUUCGCAAUUATT; chain 2 UAAUUGCGAAUGAUGUCAGUU; chain 1: DNA at AGT, 2'-fluoro at CU, [invAb] at 5' end, 3' end, backbone not given here; chain 2: sugars from the 5' end rrrffmfmmmfmmfmffmmmm, backbone not given here)
STAT1 human mRNA
  % KD Human: 93%
STAT1 mouse mRNA
  % KD Mouse: 29%

## 25364-DC: STAT1 siNA duplex, human target site 674; modified strands SEQ ID NO: 65 and 66 (chain 1 GUCUGAAGGAAGAAAGGAATT; chain 2 UUCCUUUCUUCCUUCAGACUU; chain 1: sugars from the 5' end d1 f3 d17, [invAb] at 5' end, 3' end, backbone not given here; chain 2: sugars from the 5' end r3 f12 m3 f1 m2, backbone not given here)
STAT1 human mRNA
  % KD Human: 88%
STAT1 mouse mRNA
  % KD Mouse: 83%

## 25350-DC: STAT1 siNA duplex, human target site 190; modified strands SEQ ID NO: 37 and 38 (chain 1 GCGCAGAAAAGUUUCAUUUTT; chain 2 AAAUGAAACUUUUCUGCGCUU; chain 1: DNA at AGT, 2'-fluoro at CU, [invAb] at 5' end, 3' end, backbone not given here; chain 2: sugars from the 5' end rrrfmmmmfffffffmfmfmm, backbone not given here)
STAT1 human mRNA
  % KD Human: 82%
STAT1 mouse mRNA
  % KD Mouse: 31%

## 25366-DC: STAT1 siNA duplex, human target site 965; modified strands SEQ ID NO: 69 and 70 (chain 1 UGCUUGACAAUAAGAGAAATT; chain 2 UUUCUCUUAUUGUCAAGCAUU; chain 1: DNA at AGT, 2'-fluoro at CU, [invAb] at 5' end, 3' end, backbone not given here; chain 2: sugars from the 5' end rrrfffffmffmffmmmfmmm, backbone not given here)
STAT1 human mRNA
  % KD Human: 88%
STAT1 mouse mRNA
  % KD Mouse: 86%

## 25349-DC: STAT1 siNA duplex, human target site 185; modified strands SEQ ID NO: 35 and 36 (chain 1 CCUGCGCGCAGAAAAGUUUTT; chain 2 AAACUUUUCUGCGCGCAGGUU; chain 1: DNA at AGT, 2'-fluoro at CU, [invAb] at 5' end, 3' end, backbone not given here; chain 2: sugars from the 5' end rrrfffffffmfmfmfmmmmm, backbone not given here)
STAT1 human mRNA
  % KD Human: 91%
STAT1 mouse mRNA
  % KD Mouse: 33%

## 25371-DC: STAT1 siNA duplex, human target site 432; modified strands SEQ ID NO: 79 and 80 (chain 1 CAUGGAAAUCAGACAGUACTT; chain 2 GUACUGUCUGAUUUCCAUGUU; chain 1: DNA at AGT, 2'-fluoro at CU, [invAb] at 5' end, 3' end, backbone not given here; chain 2: sugars from the 5' end rrrffmfffmmfffffmfmmm, backbone not given here)
STAT1 human mRNA
  % KD Human: 89%
STAT1 mouse mRNA
  % KD Mouse: 85%

## 25370-DC: STAT1 siNA duplex, human target site 785; modified strands SEQ ID NO: 77 and 78 (chain 1 AAGUCAGAAAUGUGAAGGATT; chain 2 UCCUUCACAUUUCUGACUUUU; chain 1: DNA at AGT, 2'-fluoro at CU, [invAb] at 5' end, 3' end, backbone not given here; chain 2: sugars from the 5' end rrrfffmfmfffffmmfffmm, backbone not given here)
STAT1 human mRNA
  % KD Human: 84%
STAT1 mouse mRNA
  % KD Mouse: 76%

## 25353-DC: STAT1 siNA duplex, human target site 2253; modified strands SEQ ID NO: 43 and 44 (chain 1 CACGAAGAAAGAACUUUCUTT; chain 2 AGAAAGUUCUUUCUUCGUGUU; chain 1: DNA at AGT, 2'-fluoro at CU, [invAb] at 5' end, 3' end, backbone not given here; chain 2: sugars from the 5' end rrrmmmffffffffffmfmmm, backbone not given here)
STAT1 human mRNA
  % KD Human: 86%
STAT1 mouse mRNA
  % KD Mouse: 79%

## 25359-DC: STAT1 siNA duplex, human target site 268; modified strands SEQ ID NO: 55 and 56 (chain 1 CGACAGUCUUGGCACCUAATT; chain 2 UUAGGUGCCAAGACUGUCGUU; chain 1: DNA at AGT, 2'-fluoro at CU, [invAb] at 5' end, 3' end, backbone not given here; chain 2: sugars from the 5' end rrrmmfmffmmmmffmffmmm, backbone not given here)
STAT1 human mRNA
  % KD Human: 88%
STAT1 mouse mRNA
  % KD Mouse: 47%
